Measurements as given in patent US6429317B1, “Indane derivatives for antipsychotic compositions” (priority 1996, dated 2002).

Biological target: muscarinic receptor
Assay: not given
Conditions: first of three sites (high affinity); read-out: affinity of site labeled by 3H-Oxo; cited from earlier work

Question: For `C[N+](C)(C)CC#CCN1CCCC1=O` [^3H-Oxo, ^3H-Oxotremorine-M], which Kd is on record?
Answer: 1.8 nM

Same assay, conditions: second of three sites (medium affinity); read-out: affinity of site labeled by 3H-Oxo; cited from earlier work

Question: With `C[N+](C)(C)CC#CCN1CCCC1=O` [^3H-Oxo, ^3H-Oxotremorine-M] as the compound, how does the Kd read?
Answer: 20 nM

Same assay, conditions: third of three sites (low affinity); read-out: affinity of site labeled by 3H-Oxo; cited from earlier work

Question: Which Kd does the source give for `C[N+](C)(C)CC#CCN1CCCC1=O` [^3H-Oxo, ^3H-Oxotremorine-M] here?
Answer: 3000 nM

Biological target: T1, human m4 receptors (Homo sapiens, UniProt P08173)
T1 construct: expressed in transfected cells; host or cells: CHO K1
T1 sequence (P08173 whole entry): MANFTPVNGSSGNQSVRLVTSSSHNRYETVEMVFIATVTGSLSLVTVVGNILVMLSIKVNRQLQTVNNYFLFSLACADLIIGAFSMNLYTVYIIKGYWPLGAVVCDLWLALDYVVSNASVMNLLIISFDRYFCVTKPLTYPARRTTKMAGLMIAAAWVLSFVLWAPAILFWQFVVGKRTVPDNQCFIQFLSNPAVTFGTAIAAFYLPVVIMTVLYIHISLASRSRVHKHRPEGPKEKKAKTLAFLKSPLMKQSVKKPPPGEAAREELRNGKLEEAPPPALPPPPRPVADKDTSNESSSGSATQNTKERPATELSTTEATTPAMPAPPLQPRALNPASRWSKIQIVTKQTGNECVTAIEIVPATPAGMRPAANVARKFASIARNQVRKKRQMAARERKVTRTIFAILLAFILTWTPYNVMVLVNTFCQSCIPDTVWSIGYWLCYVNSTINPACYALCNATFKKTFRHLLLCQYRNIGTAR
Assay: Cyclic AMP accumulation in pertussis toxin-treated CHO m4 cells
Type: cell-based
Conditions: stimulation of cyclic AMP production in CHO-m4 cells, forskolin present
Method: Cyclic AMP Accumulation in Pertussis Toxin-Treated CHO m4 Cells.
CHO K1 cells transfected with human m4 receptors were grown to near confluency in T-150 flasks using Dulbecco's Modified Eagle Medium (DMEM) containing 10% fetal bovine serum. Cells were detached with 0.05% trypsin, […], and were suspended in medium containing 100 ng/ml pertussis toxin. Cells were plated at 30,000 cells per well into 96 well plates. Eighteen to twenty hours later the medium was removed and the cells were washed with serum-free medium. Attached cells were incubated at 37° C. for one hour after addition of […] of serum free DMEM containing 1 mM 3-isobutyl-1-methylxanthine and 1 mM forskolin plus or minus drugs being tested. Incubations were terminated with […] per well of serum free DMEM containing 0.3% triton-X-100. After stopping incubations the plates were allowed to sit for 20 minutes to extract cAMP and samples were then diluted 2.5-fold and were assayed using the scintillation proximity assay of Amersham (Arlington Heights, Ill).
Representative results from the M4 assay are as follows:
Stimulation of cyclic AMP production in CHO-m4cells.

Question: Which “% Maximum Stimulation Compared to Oxotremorine-M” value does the source give for `CCCCc1ccc(C(=O)NC2c3cc(N=CN4CCCC4)ccc3CC2O)cc1` (stereo not drawn) [Compound 45] here?
Answer: <20%

Question: For `O=C(NC1c2cc(N=CN3CCCC3)ccc2CC1O)c1c(Cl)cccc1Cl` (stereo not drawn) [Compound 46], which “% Maximum Stimulation Compared to Oxotremorine-M” value is on record?
Answer: 154%

Question: Which “% Maximum Stimulation Compared to Oxotremorine-M” value does the source give for `O=C(NC1c2cc(N=CN3CCCC3)ccc2CC1O)c1c(Cl)cc(Cl)cc1Cl` (stereo not drawn) [Compound 47] here?
Answer: <20%

Question: For `CN(C)C=Nc1ccc2c(c1)C(NC(=O)c1ccccc1)C(O)C2` (stereo not drawn) [Compound 57], which “% Maximum Stimulation Compared to Oxotremorine-M” value is on record?
Answer: 5%

Question: Which “% Maximum Stimulation Compared to Oxotremorine-M” value does the source give for `CN(C)C=Nc1ccc2c(c1)C(NC(=O)c1cc(Cl)cc(Cl)c1)C(O)C2` (stereo not drawn) [Compound 58] here?
Answer: 74%

Question: With `CCCCOc1ccc(C(=O)NC2c3cc(N=CN(C)C)ccc3CC2O)cc1` (stereo not drawn) [Compound 59] as the compound, how does the “% Maximum Stimulation Compared to Oxotremorine-M” value read?
Answer: 22%

Question: With `CN(C)C=Nc1ccc2c(c1)C(NC(=O)c1cc(C(F)(F)F)cc(C(F)(F)F)c1)C(O)C2` (stereo not drawn) [Compound 60] as the compound, how does the “% Maximum Stimulation Compared to Oxotremorine-M” value read?
Answer: 100%

Question: Which “% Maximum Stimulation Compared to Oxotremorine-M” value does the source give for `CN(C)C=Nc1ccc2c(c1)C(NC(=O)c1cccc(C#N)c1)C(O)C2` (stereo not drawn) [Compound 61] here?
Answer: 39%

Question: With `CN(C)C=Nc1ccc2c(c1)C(NC(=O)C1CCCC1)C(O)C2` (stereo not drawn) [Compound 62] as the compound, how does the “% Maximum Stimulation Compared to Oxotremorine-M” value read?
Answer: 27%

Question: With `CN(C)C=Nc1ccc2c(c1)C(NC(=O)c1ccc3ccccc3c1)C(O)C2` (stereo not drawn) [Compound 63] as the compound, how does the “% Maximum Stimulation Compared to Oxotremorine-M” value read?
Answer: 13%

Question: With `CN(C)C=Nc1ccc2c(c1)C(NC(=O)c1cc(F)cc(C(F)(F)F)c1)C(O)C2` (stereo not drawn) [Compound 64] as the compound, how does the “% Maximum Stimulation Compared to Oxotremorine-M” value read?
Answer: 52%

Question: Which “% Maximum Stimulation Compared to Oxotremorine-M” value does the source give for `CN(C)C=Nc1ccc2c(c1)C(NC(=O)c1cc(F)c(F)c(F)c1)C(O)C2` (stereo not drawn) [Compound 65] here?
Answer: 30%

Question: With `CN(C)C=Nc1ccc2c(c1)C(NC(=O)C(F)(F)F)C(O)C2` (stereo not drawn) [Compound 66] as the compound, how does the “% Maximum Stimulation Compared to Oxotremorine-M” value read?
Answer: 0%

Question: For `CCc1ccc(C(=O)NC2c3cc(N=CN(C)C)ccc3CC2O)cc1` (stereo not drawn) [Compound 67], which “% Maximum Stimulation Compared to Oxotremorine-M” value is on record?
Answer: 7%

Question: With `CN(C)C=Nc1ccc2c(c1)C(NC(=O)c1sccc1Cl)C(O)C2` (stereo not drawn) [Compound 68] as the compound, how does the “% Maximum Stimulation Compared to Oxotremorine-M” value read?
Answer: 0%

Question: With `CN(C)C=Nc1ccc2c(c1)C(NC(=O)c1cc3ccccc3s1)C(O)C2` (stereo not drawn) [Compound 69] as the compound, how does the “% Maximum Stimulation Compared to Oxotremorine-M” value read?
Answer: 14%

Question: With `CCCCc1ccc(C(=O)NC2c3cc(N=CN(C)C)ccc3CC2O)cc1` (stereo not drawn) [Compound 70] as the compound, how does the “% Maximum Stimulation Compared to Oxotremorine-M” value read?
Answer: 18%

Question: With `CN(C)C=Nc1ccc2c(c1)C(NC(=O)c1cccc3ccccc13)C(O)C2` (stereo not drawn) [Compound 71] as the compound, how does the “% Maximum Stimulation Compared to Oxotremorine-M” value read?
Answer: 95%

Question: For `CN(C)C=Nc1ccc2c(c1)C(NS(=O)(=O)c1ccc(Cl)c(Cl)c1)C(O)C2` (stereo not drawn) [Compound 72], which “% Maximum Stimulation Compared to Oxotremorine-M” value is on record?
Answer: 4%

Question: Which “% Maximum Stimulation Compared to Oxotremorine-M” value does the source give for `CN(C)C=Nc1ccc2c(c1)C(NC(=O)c1cccnc1Cl)C(O)C2` (stereo not drawn) [Compound 73] here?
Answer: 11%

Question: For `CN(C)C=Nc1ccc2c(c1)C(NC(=O)c1ccc(Cl)nc1)C(O)C2` (stereo not drawn) [Compound 74], which “% Maximum Stimulation Compared to Oxotremorine-M” value is on record?
Answer: 8%

Question: Which “% Maximum Stimulation Compared to Oxotremorine-M” value does the source give for `CN(C)C=Nc1ccc2c(c1)C(NC(=O)c1ccc(C(F)(F)F)cc1)C(O)C2` (stereo not drawn) [Compound 75] here?
Answer: 6%

Question: For `CC(=Nc1ccc2c(c1)C(NC(=O)c1ccc(Cl)c(Cl)c1)C(O)C2)N(C)C` (stereo not drawn) [Compound 76], which “% Maximum Stimulation Compared to Oxotremorine-M” value is on record?
Answer: 130%

Question: With `O=C(NC1c2cc(N=CN3CCCCC3)ccc2CC1O)c1ccc(Cl)c(Cl)c1` (stereo not drawn) [Compound 77] as the compound, how does the “% Maximum Stimulation Compared to Oxotremorine-M” value read?
Answer: 214%

Question: With `O=C(NC1c2cc(N=CN3CCCCC3)ccc2CC1O)c1cccc(Cl)c1Cl` (stereo not drawn) [Compound 88] as the compound, how does the “% Maximum Stimulation Compared to Oxotremorine-M” value read?
Answer: 52%

Question: Which “% Maximum Stimulation Compared to Oxotremorine-M” value does the source give for `O=C(NC1c2cc(N=CN3CCCCC3)ccc2CC1O)c1cc(Cl)cc(Cl)c1` (stereo not drawn) [Compound 97] here?
Answer: 36%

Question: For `O=C(NC1c2cc(N=CN3CCCCC3)ccc2CC1O)c1cc(F)cc(F)c1` (stereo not drawn) [Compound 98], which “% Maximum Stimulation Compared to Oxotremorine-M” value is on record?
Answer: 73%
